Format in all cases: in vivo
One assay concerns Culex spp. The assay is described as follows: experimental hut field trial of spatial repellence, Culex. The note with it: single compound, 1 ml in open vial in MM-X trap, per night. The protocol: (§1) To test the effects of repellent compounds or compositions disclosed herein on mosquitoes in a controlled environment resembling actual living quarters and conditions, field trials with standardized experimental huts were conducted at Kainji Dam in North Central Nigeria.
(§2) Six such huts were built in a straight line, and the distance between huts was 11 meters. These huts follow a traditional square design, the walls are built with concrete blocks that are subsequently plastered with cement, each wall has a window. The ceiling is plywood and the roof is thatched with eaves that are open, thereby allowing free flow of air into and out of the hut, and thus entry and exit of mosquitoes. There is a door for entry and exit. Two opposing sides of each hut have window exit traps and screened verandas to capture mosquitoes leaving via the windows or eaves. Each hut is raised off the ground on a concrete platform and surrounded by a moat filled with water in order to prevent ants from entering. Each hut is fitted with a mattress and an untreated bed net for sleepers. These huts are similar in design and concept to those used previously elsewhere for studying mosquito behavior and measuring the efficacy of various mosquito control products or intervention methods in Tanzania and Gambia. For design parameters refer to WHOPES 2005. The huts are adjacent to a tributary of the River Niger at a distance of 10 km from the Kainji Dam site and face rice fields known to harbor permanent mosquito breeding sites. The mosquitoes endemic to this area of Nigeria are highly endophillic, that is, they rest mainly indoors.
(§3) Human volunteers that participated as sleepers in this field trial were provided with anti-malarial chemical prophylaxis on a weekly basis, and the protocols used herein were reviewed and approved by the Research Ethics Review Committee of the Nigerian Institute of Medical Research. Six male adult volunteers, aged between 25 and 35 years old, were recruited to sleep in the huts described above. Sleepers were allocated to huts randomly for each series of trials, and this randomization process occurred nightly. The volunteers entered the huts by 21:00 each night and remained inside the huts until 06:30 the following morning. Each morning, the windows were closed and the exit traps blocked with a piece of cloth to prevent mosquitoes that entered from exiting. The traps were then put in a freezer at −20° C. to kill all the mosquitoes before being emptied for identification. By means of a sucking aspirator the verandas and rooms were visually searched for live mosquitoes and any insects found were collected in labelled cups. A 10-minute search was conducted for each hut (room and veranda traps). The exit traps were emptied into a labelled cup and all the mosquitoes placed in the freezer at −20° C. for about 30 minutes before morphological identification.
(§4) The Mosquito Magnet trap Model-X (MM-X trap made by the firm formerly known as American Biophysics (ABC), USA) is a 12V battery operated counter-flow trap that was used as the repellent dispersing device to evaluate the efficacy of repellent compounds or compositions disclosed herein. Four compounds, carvacrol, cumin alcohol, ethyl cinnamate, and butyl cinnamate, were evaluated in comparison to DEET as a nonproprietary conventional repellent in a first experiment. The chemical compounds were provided in liquid form: carvacrol (98%), butyl cinnamate (98%), ethyl cinnamate (98%), cumin alcohol (97%) and DEET (97%). […]

For assay [1], the system named is Anopheles gambiae (Giles) ss strain 16CSS female mosquitoes. The assay is described as follows: warm body repellence assay (mosquito landings). The note with it: for median repellency (%) at 20 nmol/cm2: Anopheles gambiae, 2 min, 20 nmole per cm^2, read-out: Median Repellency (%). The protocol: To test the behavior of female mosquitoes to an essential oil containing OBP binding components, a previously described repellence assay [Kröber et al. (2010). An In Vitro Assay for Testing Mosquito Repellents Employing a Warm Body and Carbon Dioxide as a Behavioral Activator. Journal of the American Mosquito Control Association 26(4) 381-386] was conducted that measures the number of mosquito landings on a warm surface onto which an essential oil containing at least one candidate compound was applied.
To conduct a repellency assay, a selected essential oil or ethanol negative control was applied to a warm body at a dose of about 3.8 μg/cm^2 and allowed to dry for 40 seconds in order to allow evaporation of the solvent before introduction into the test cage with mosquitoes. As positive control for repellence, DEET dissolved in ethanol was applied to the warm body at the same dose. The treated warm body in conjunction with a pulse of carbon dioxide was introduced into the test cage containing fifty Anopheles gambiae (Giles) ss strain 16CSS female mosquitoes that were 4-11 days old and the number of mosquito landings on the warm body occurring within a 2-minute period was counted. Each candidate compound was tested in five different cages (i.e., 250 female mosquitoes) in a randomized design, and the ethanol control and up to four candidate compounds were tested in each cage. Raw data on numbers of landings by mosquitoes were analyzed using a linear mixed model accounting for treatment, experimental day, the individual cage, the number of females per cage and the level of the carbon dioxide pulse in ppm using R (R Development Core Team, 2010) and the packages LME4 (Bates and Maechler, Ime4: Linear mixed-effects models using {S4} classes.{R} package version 0.999375-32, 2009) and NLME (Pinheiro et al, nlme: Linear and Nonlinear Mixed Effects Models, 2010; the R Development Core Team, R: A Language and Environment for Statistical Computing, 2010). Repellent values were calculated from counted landings on treatments versus the overall landings on pooled controls.
To test the behavior of female mosquitoes to a candidate compound identified in Example 5, behavioral assays were made using the identified compounds. The repellent assay was performed as described in Example 3, except that candidate compounds were dissolved in ethanol and tested initially at doses between 1.0 and 5.0 μg/cm^2 (about 5-31.5 nmole/cm^2) and, whenever necessary, at lower and/or higher doses as well. Besides the compounds identified in Example 5, compounds related to these were also tested including ethyl-cinnamate and butyl-cinnamate (Table 4).
To test the behavior of female mosquitoes to various combinations of candidate compounds identified in Example 6, repellence assays were made as in Example 3. These repellent assays were made to compare the effectiveness of the strongest repellent compounds identified in Example 6, including, without limitation, carvacrol, ethyl cinnamate, butyl cinnamate, and cumin alcohol with that of DEET.
The doses tested were 2, 4, 6 10 and 20 nmol/cm^2 for the single compounds. The binary 50:50 mixtures were tested at 2, 6, 10 and 20 nmol/cm^2, with each compound making up half the amount tested, so that, for example, the 2 nmol/cm^2 concentration in column A+B represents 1 nmol/cm^2 of A and 1 nmol/cm^2 of B in a binary mixture. DEET was also tested at 25 nmol (top response) and carvacrol was tested at the additional dose of 2.5 nmol (second from left within its column). As an indication, DEET at 20 nmol/cm^2=3.8 μg/cm^2. Mosquitoes were activated using a puff of CO2 from a gas tank upon introduction of the warm body into the test cage containing 50±5 A. gambiae females and mosquito landings were counted for 2 minutes. Each treatment (dose) was tested using five test cages, i.e. on a total of 250 female A. gambiae. […]

In another assay the test system is Anopheles gambiae s.l. Description: experimental hut field trial of spatial repellence, Anopheles. The note with it: single compound, 1 ml in open vial in MM-X trap, per night. The procedure: as §1, §2, §3, §4
Assay [2] relates to sand fly Lutzomyia longipalpis. The assay is described as follows: warm body repellence assay with sand flies. The settings on record: 2 minutes, control 48. The protocol:
To test the effects of repellent compounds or compositions disclosed herein on other blood-feeding arthropods, a warm body repellence assay (Krober et. al. (2010). An In Vitro Assay for Testing Mosquito Repellents Employing a Warm Body and Carbon Dioxide as a Behavioral Activator. Journal of the American Mosquito Control Association 26(4): 381-386] was conducted using the sand fly Lutzomyia longipalpis (Diptera: Psychodidae), the principal vector of Leishmania (or leismaniasis) in the Americas.
[…] Fifty L. longipalpis sandflies (male:female ratio 1:1) of 3-7 days old were tested during the scotophase under conditions described for A. gambiae in Example 6. The test cages were lined with filter paper. Reduction in the number of landings by L. longipalpis sand fly females on a warm body treated with different test products compared to the control with solvent (ethanol p.a.) alone was used to evaluate repellence. Tests were conducted in complete darkness using IR LEDs to illuminate the warm body. Landings counted during 2 minutes were normalized by experimental day, cage, and number of females by a mixed linear model before testing for differences.

Where [3] appears, read: 2 nmol (per cm^2, total for mixtures, 50:50).
The mark [4] stands for this setting: 4 nmol (per cm^2, total for mixtures, 50:50).
Setting [5] is: 6 nmol (per cm^2, total for mixtures, 50:50).
The mark [6] stands for this setting: 20 nmol (per cm^2, total for mixtures, 50:50).

SMILES strings stand for the structures.

Turning to `CCOC(=O)C=Cc1ccccc1` [(E)-ethyl-cinnamate, ethyl 3-phenylprop-2-enoate], the “spatial repellent effect, induced exophily (in words)” value with Culex spp. and in the assay on Anopheles gambiae s.l. was “significantly lower than that of DEET” throughout. For the same compound, the Median repellence % is on record as −18% in assay [1] (setting [3]), 18% in assay [1] (setting [4]), 35% in assay [1] (setting [5]) and 83% in assay [1] (setting [6]). In addition, the median repellency (%) at 20 nmol/cm2 in assay [1] is 82.8%.

As to `CCCCOC(=O)C=Cc1ccccc1` [butyl-cinnamate, butyl 3-phenylprop-2-enoate], the “spatial repellent effect, induced exophily (in words)” value with Culex spp. and in the assay on Anopheles gambiae s.l. was “significantly lower than that of DEET” in each case. The Median repellence % is reported as −1% in assay [1] (setting [3]); 28% in assay [1] (setting [4]); 61% in assay [1] (setting [5]); 68% in assay [1] (10 nmol (per cm^2, total for mixtures, 50:50)); 89% in assay [1] (setting [6]). Further, the median repellency (%) at 20 nmol/cm2 in assay [1] was 88.7%. Also, the Median of landings is on record as 49 in assay [2] (20 nmol/cm^2) and 40 in assay [2] (200 nmol/cm^2).

Source of the values: patent publication US10390536B2, “Methods, compounds and compositions for repelling insects and/or arachnids” (National Center for Scientific Research “Demokritos”, priority 2013, dated 2019).
